Experimental data from PubChem BioAssay AID1963854 (Molecular Pharmacology Branch, DTP, NCI, 2024).

Test system: 186277-243-T-J2-PDC complex spheroid viability
Test: Anticancer human tumor 186277-243-T-J2-PDC patient-derived colon adenocarcinoma cell line growth inhibition [POLQ]
Conditions: for IC50: curve of first compound; for viability, T/C: stronger effect = lower value
Method in brief: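 PDC + HUVEC + MSC complex spheroids; POLQ inhibitors ± partner drugs; top conc. at/near clinical Cmax, else 10 microM (SN-38 1 microM), half-log dilutions; 37 degrees C, 5% CO2.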

[1] = second compound 0.0316 µM, first compound 0.0316 µM
[2] = second compound 0.0316 µM, first compound 0.1 µM
[3] = second compound 0.0316 µM, first compound 0.316 µM
[4] = second compound 0.0316 µM, first compound 1 µM
[5] = second compound 0.0316 µM, first compound 3.16 µM
[6] = second compound 0.0316 µM, first compound 10 µM
[7] = second compound 0.1 µM, first compound 0.0316 µM
[8] = second compound 0.1 µM, first compound 0.1 µM
[9] = second compound 0.1 µM, first compound 0.316 µM
[10] = second compound 0.1 µM, first compound 1 µM
[11] = second compound 0.1 µM, first compound 3.16 µM
[12] = second compound 0.1 µM, first compound 10 µM
[13] = second compound 0.316 µM, first compound 0.0316 µM
[14] = second compound 0.316 µM, first compound 0.1 µM
[15] = second compound 0.316 µM, first compound 0.316 µM
[16] = second compound 0.316 µM, first compound 1 µM
[17] = second compound 0.316 µM, first compound 3.16 µM
[18] = second compound 0.316 µM, first compound 10 µM
[19] = second compound 1 µM, first compound 0.0316 µM
[20] = second compound 1 µM, first compound 0.1 µM
[21] = second compound 1 µM, first compound 0.316 µM
[22] = second compound 1 µM, first compound 1 µM
[23] = second compound 1 µM, first compound 3.16 µM
[24] = second compound 1 µM, first compound 10 µM
[25] = second compound 3.16 µM, first compound 0.0316 µM
[26] = second compound 3.16 µM, first compound 0.1 µM
[27] = second compound 3.16 µM, first compound 0.316 µM
[28] = second compound 3.16 µM, first compound 1 µM
[29] = second compound 3.16 µM, first compound 3.16 µM
[30] = second compound 3.16 µM, first compound 10 µM
[31] = second compound 10 µM, first compound 0.0316 µM
[32] = second compound 10 µM, first compound 0.1 µM
[33] = second compound 10 µM, first compound 0.316 µM
[34] = second compound 10 µM, first compound 1 µM
[35] = second compound 10 µM, first compound 3.16 µM
[36] = second compound 10 µM, first compound 10 µM
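Also: spheroids exposed to compounds for seven days.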
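For viability, T/C in this document: 100% = DMSO vehicle control viability.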

## O=c1[nH]cc(F)c(=O)[nH]1 + Nc1ccc(C#CCN(C(=O)Cc2ncc(C(F)(F)F)cc2C(F)(F)F)c2ccc(F)cc2)nn1
Second compound 0.0316 µM
  IC50: > 10 µM
Second compound 0.1 µM
  IC50: > 10 µM
Second compound 0.316 µM
  IC50: > 10 µM
Second compound 1 µM
  IC50: > 10 µM
Second compound 3.16 µM
  IC50: > 10 µM
Second compound 10 µM
  IC50: > 10 µM
[1]
  viability, T/C: 102%
[2]
  viability, T/C: 94.3%
[3]
  viability, T/C: 103%
[4]
  viability, T/C: 102%
[5]
  viability, T/C: 97.4%
[6]
  viability, T/C: 64.8%
[7]
  viability, T/C: 97.7%
[8]
  viability, T/C: 112%
[9]
  viability, T/C: 97.4%
[10]
  viability, T/C: 107%
[11]
  viability, T/C: 103%
[12]
  viability, T/C: 67.3%
[13]
  viability, T/C: 95.9%
[14]
  viability, T/C: 103%
[15]
  viability, T/C: 101%
[16]
  viability, T/C: 88.3%
[17]
  viability, T/C: 97.3%
[18]
  viability, T/C: 65.6%
[19]
  viability, T/C: 98.8%
[20]
  viability, T/C: 92.6%
[21]
  viability, T/C: 109%
[22]
  viability, T/C: 87.6%
[23]
  viability, T/C: 107%
[24]
  viability, T/C: 63.1%
[25]
  viability, T/C: 103%
[26]
  viability, T/C: 96.5%
[27]
  viability, T/C: 109%
[28]
  viability, T/C: 106%
[29]
  viability, T/C: 104%
[30]
  viability, T/C: 61%
[31]
  viability, T/C: 109%
[32]
  viability, T/C: 106%
[33]
  viability, T/C: 101%
[34]
  viability, T/C: 102%
[35]
  viability, T/C: 90.6%
[36]
  viability, T/C: 52.4%

## COc1ccc([C@@H](O)c2cc(-c3ncnc4cc(N5CCOCC5)ccc34)c(F)cc2Cl)nn1 + COC1C(OC(N)=O)C(O)C(Oc2ccc3c(O)c(NC(=O)c4ccc(O)c(CC=C(C)C)c4)c(=O)oc3c2C)OC1(C)C
Second compound 0.0316 µM
  IC50: 6.3 µM
Second compound 0.1 µM
  IC50: 5.61 µM
Second compound 0.316 µM
  IC50: 5.55 µM
Second compound 1 µM
  IC50: 6.16 µM
Second compound 3.16 µM
  IC50: 5.34 µM
Second compound 10 µM
  IC50: 5.67 µM
[1]
  viability, T/C: 102%
[2]
  viability, T/C: 97.2%
[3]
  viability, T/C: 109%
[4]
  viability, T/C: 95.2%
[5]
  viability, T/C: 79%
[6]
  viability, T/C: 30.7%
[7]
  viability, T/C: 103%
[8]
  viability, T/C: 92.2%
[9]
  viability, T/C: 106%
[10]
  viability, T/C: 99.2%
[11]
  viability, T/C: 72.6%
[12]
  viability, T/C: 27.1%
[13]
  viability, T/C: 102%
[14]
  viability, T/C: 108%
[15]
  viability, T/C: 108%
[16]
  viability, T/C: 110%
[17]
  viability, T/C: 71.1%
[18]
  viability, T/C: 27.9%
[19]
  viability, T/C: 90.9%
[20]
  viability, T/C: 101%
[21]
  viability, T/C: 113%
[22]
  viability, T/C: 110%
[23]
  viability, T/C: 78%
[24]
  viability, T/C: 29.7%
[25]
  viability, T/C: 106%
[26]
  viability, T/C: 103%
[27]
  viability, T/C: 108%
[28]
  viability, T/C: 116%
[29]
  viability, T/C: 70%
[30]
  viability, T/C: 26.1%
[31]
  viability, T/C: 108%
[32]
  viability, T/C: 101%
[33]
  viability, T/C: 109%
[34]
  viability, T/C: 101%
[35]
  viability, T/C: 72.6%
[36]
  viability, T/C: 28%

## CC(=O)O[C@H]1C(=O)[C@@]2(C)[C@H]([C@H](OC(=O)c3ccccc3)[C@]3(O)C[C@H](OC(=O)[C@H](O)[C@@H](NC(=O)c4ccccc4)c4ccccc4)C(C)=C1C3(C)C)[C@]1(OC(C)=O)CO[C@@H]1C[C@@H]2O + Cc1cccc(N(C)C(=O)C2C(O)CCN2c2nc(C)cc(C(F)(F)F)c2C#N)c1
Second compound 0.0316 µM
  IC50: < 0.00949 µM
Second compound 0.1 µM
  IC50: < 0.00949 µM
Second compound 0.316 µM
  IC50: < 0.00949 µM
Second compound 1 µM
  IC50: < 0.00949 µM
Second compound 3.16 µM
  IC50: < 0.00949 µM
Second compound 10 µM
  IC50: < 0.00949 µM
Second compound 0.0316 µM, first compound 0.00949 µM
  viability, T/C: 37.5%
Second compound 0.0316 µM, first compound 0.03 µM
  viability, T/C: 10.3%
Second compound 0.0316 µM, first compound 0.0949 µM
  viability, T/C: 7.26%
Second compound 0.0316 µM, first compound 0.3 µM
  viability, T/C: 5.79%
Second compound 0.0316 µM, first compound 0.949 µM
  viability, T/C: 5.96%
Second compound 0.0316 µM, first compound 3 µM
  viability, T/C: 6.11%
Second compound 0.1 µM, first compound 0.00949 µM
  viability, T/C: 35%
Second compound 0.1 µM, first compound 0.03 µM
  viability, T/C: 10.9%
Second compound 0.1 µM, first compound 0.0949 µM
  viability, T/C: 7.5%
Second compound 0.1 µM, first compound 0.3 µM
  viability, T/C: 5.9%
Second compound 0.1 µM, first compound 0.949 µM
  viability, T/C: 5.52%
Second compound 0.1 µM, first compound 3 µM
  viability, T/C: 6.96%
Second compound 0.316 µM, first compound 0.00949 µM
  viability, T/C: 45.3%
Second compound 0.316 µM, first compound 0.03 µM
  viability, T/C: 10.2%
Second compound 0.316 µM, first compound 0.0949 µM
  viability, T/C: 6.71%
Second compound 0.316 µM, first compound 0.3 µM
  viability, T/C: 5.81%
Second compound 0.316 µM, first compound 0.949 µM
  viability, T/C: 5.53%
Second compound 0.316 µM, first compound 3 µM
  viability, T/C: 5.53%
Second compound 1 µM, first compound 0.00949 µM
  viability, T/C: 34.8%
Second compound 1 µM, first compound 0.03 µM
  viability, T/C: 12.4%
Second compound 1 µM, first compound 0.0949 µM
  viability, T/C: 6.22%
Second compound 1 µM, first compound 0.3 µM
  viability, T/C: 5.71%
Second compound 1 µM, first compound 0.949 µM
  viability, T/C: 5.47%
Second compound 1 µM, first compound 3 µM
  viability, T/C: 5.47%
Second compound 3.16 µM, first compound 0.00949 µM
  viability, T/C: 27.2%
Second compound 3.16 µM, first compound 0.03 µM
  viability, T/C: 10.5%
Second compound 3.16 µM, first compound 0.0949 µM
  viability, T/C: 6.13%
Second compound 3.16 µM, first compound 0.3 µM
  viability, T/C: 5.47%
Second compound 3.16 µM, first compound 0.949 µM
  viability, T/C: 5.6%
Second compound 3.16 µM, first compound 3 µM
  viability, T/C: 5.16%
Second compound 10 µM, first compound 0.00949 µM
  viability, T/C: 20.3%
Second compound 10 µM, first compound 0.03 µM
  viability, T/C: 6.86%
Second compound 10 µM, first compound 0.0949 µM
  viability, T/C: 5.75%
Second compound 10 µM, first compound 0.3 µM
  viability, T/C: 5.46%
Second compound 10 µM, first compound 0.949 µM
  viability, T/C: 5.93%
Second compound 10 µM, first compound 3 µM
  viability, T/C: 6.1%
